Experimental findings from paper PMC12682947, “Identification of New KCNT1‐Epilepsy Drugs by In Silico, Cell, and Drosophila Modeling” (Annals of Neurology, 2025) are described below.

Where a name gives a salt, the structure may show the parent alone.

This data set has as its system Drosophila mutant KCNT1 lines (G288S, R398Q, R928C). The experiment in a line: Bang-sensitive behavioral seizure assay, statements for all three Drosophila mutant KCNT1 lines. It is filed as in vivo, Drosophila melanogaster. To be noted: for effect on seizure activity (in words): drug in food, 1 nM to 1 μM, each of the three mutant lines. From the text: The Drosophila melanogaster lines carrying the WT human KCNT1 transgene (NM_020822_3) or KCNT1 mutant G288S, R398Q or R928C transgene placed downstream of the yeast UAS promoter, have been described previously.[11] WT or mutant human UAS‐KCNT1 flies were crossed to flies expressing the GAL4 transcriptional activator under the control of the GAD1 promoter (GABAergic driver, Bloomington stock number 51630 P2) to drive expression of KCNT1 in GABAergic neurons, involved in neuronal inhibition.[11]
The bang‐sensitive behavioral assay (also known as the banging assay) was used to test for the presence of a seizure phenotype in Drosophila.[11], [30] Experiments were performed and scored, as previously described,[11] with a minimum of 50 Drosophila tested for each genotype and drug concentration.
Four drugs were selected for in vivo analysis to determine their effects on the seizure phenotypes in transgenic Drosophila lines with human mutant KCNT1 channels. Bepridil, a nonselective KCNT1 inhibitor was included for comparison. Drosophila food with and without drugs was prepared as previously described.[11] All chemicals were obtained from Sigma‐Aldrich (Gillingham, UK) apart from antrafenine hydrochloride (Toronto Research Chemicals, Canada) and regorafenib (USP, Germany).
Drosophila crosses were set up, and the resulting embryos were collected, as previously described.[11] A range of concentrations of each drug dissolved in Drosophila food, between 0.001 μM and 1 μM, were used in the experiments. Multiple replicates were performed for each dosage of the drugs and controls. Controls were vehicle controlled (VC), which was the normal food with just the solvent ethanol present (1 μl/1 ml) in the Drosophila food, and normal food (NF) control where no drug or solvent (ethanol) was added in the Drosophila food.
In all experiments, experimenters were not blinded to variants or treatments, nor were samples randomly assigned to groups. Sample sizes were not calculated in advance and no data were excluded from the analysis. Data were analyzed using GraphPad Prism 9 software (San Diego, CA, USA). All values are reported as mean ± standard error of the mean (SEM). All data passed normality and lognormality Shapiro–Wilk tests, determined by GraphPad Prism 9. In the experiments analyzing the effects of drugs in Drosophila, statistical significance of differences between groups was determined using Brown‐Forsythe and Welch's analysis of variance (ANOVA) tests (Supplementary Table S3), assuming non‐equal SDs, followed by Dunnett's multiple comparisons tests (GraphPad Prism 9). The results of the Dunnett's multiple comparisons tests are shown in Supplementary Table S4, where “N” represents independent trials using independent fly crosses, with the total number of flies for each condition shown in brackets.

Turning to `Cc1c(O)cccc1C(=O)N[C@@H](CSc1ccccc1)[C@H](O)CN1C[C@H]2CCCC[C@H]2C[C@H]1C(=O)NC(C)(C)C` [nelfinavir mesylate], the “effect on seizure activity (in words)” value is reported as “significantly reduce the seizure activity”.
In the case of `O=C(OCCN1CCN(c2cccc(C(F)(F)F)c2)CC1)c1ccccc1Nc1ccnc2cc(C(F)(F)F)ccc12` [antrafenine], the “effect on seizure activity (in words)” value is listed as “significantly reduce the seizure activity”.
Regarding `CNC(=O)c1cc(Oc2ccc(NC(=O)Nc3ccc(Cl)c(C(F)(F)F)c3)c(F)c2)ccn1` [regorafenib], the “effect on seizure activity (in words)” value is reported as “did not show a significant effect”.
`CC(C)c1c(C(=O)Nc2ccccc2)c(-c2ccccc2)c(-c2ccc(F)cc2)n1CC[C@@H](O)C[C@@H](O)CC(=O)O` [atorvastatin]: the “effect on seizure activity (in words)” value was “did not show a significant effect”. Besides, the “viability of adult flies” value (1 μM in food) is on record as “reduced viability”.
